Laboratory results from US6358937B1, “Method for the treatment of cancer using phosphatidic acid-comprising compositions” (Modus Biological Membranes Ltd., priority 1996, dated 2002).

Assays:
Format in all cases: cell-based, murine
P388 (unadapted) = test: Growth rate of unadapted P388 cells; settings: unadapted P388 grown in the presence of 10^−8M drug; relative to unadapted P388 = 100
Protocol: (§1) P388/MET and P388/DOX resistant cell lines were developed as described in Example 7 above. Non-treated P388 cells and resistant cell lines of these cells were grown in the presence and absence of 10^−8M of MET or DOX as indicated in Table 5 below.

P388/MET = test: Growth rate of P388/MET resistant cells; settings: P388/MET grown in the presence of 10^−8 drug, no lipid treatment
Protocol: as §1

P388/DOX = test: Growth rate of P388/DOX resistant cells; settings: P388/DOX grown in the presence of 10^−8 drug, no lipid treatment
Protocol: as §1

SMILES	relative growth rate (P388 (unadapted))	relative growth rate (P388/MET)	relative growth rate (P388/DOX)
CN(Cc1cnc2nc(N)nc(N)c2n1)c1ccc(C(=O)N[C@@H](CCC(=O)O)C(=O)O)cc1 [MET, methotroxeate]	10 ± 5	95 ± 5	93 ± 5
COc1cccc2c1C(=O)c1c(O)c3c(c(O)c1C2=O)C[C@@](O)(C(=O)CO)C[C@@H]3O[C@H]1C[C@H](N)[C@H](O)[C@H](C)O1 [DOX, doxorubicine]	10 ± 5	95 ± 5	95 ± 5
